Measured values taken from patent publication US20220274967A1, “BCAT MODULATION” (Icagen, LLC, priority 2019, published 2022).
Where two headings read alike, the source gives them in different places.

What was measured:
BCAT1 = molecular target: T1, BCAT1 (Homo sapiens, UniProt P54687); test: BCAT1 enzyme inhibition (human), Glutamate Glo luminescence; format: biochemical
T1 sequence (P54687 1-386): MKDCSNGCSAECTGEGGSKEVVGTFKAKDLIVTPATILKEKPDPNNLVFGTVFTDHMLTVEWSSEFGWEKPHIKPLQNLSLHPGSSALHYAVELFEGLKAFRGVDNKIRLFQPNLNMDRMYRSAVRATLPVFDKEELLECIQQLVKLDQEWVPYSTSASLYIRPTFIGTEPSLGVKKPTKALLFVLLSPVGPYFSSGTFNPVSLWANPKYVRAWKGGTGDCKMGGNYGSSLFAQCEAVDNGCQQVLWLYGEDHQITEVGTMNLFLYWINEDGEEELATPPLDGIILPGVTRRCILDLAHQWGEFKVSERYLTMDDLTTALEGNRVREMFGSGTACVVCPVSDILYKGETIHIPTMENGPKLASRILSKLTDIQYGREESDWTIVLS
How it was run: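 BCAT1 enzyme (0.06 ug/ml final) was preincubated with compound (3-0.0001 μM, 0.3% DMSO) for 10 or 60 min at room temperature in 50 mM Tris/0.05% TWEEN-20. The reaction then ran 10 min with 300 μM L-leucine and 250 μM alpha-ketoglutaric acid, was acid-quenched, and glutamate was read by luminescence. IC50 came from a 4-parameter fit, normalized to 10 μM VS558CSA inhibition.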

BCAT2 = molecular target: T2, BCAT2 (Homo sapiens, UniProt O15382); test: BCAT2 enzyme inhibition (human); format: biochemical
T2 sequence (O15382 28-392): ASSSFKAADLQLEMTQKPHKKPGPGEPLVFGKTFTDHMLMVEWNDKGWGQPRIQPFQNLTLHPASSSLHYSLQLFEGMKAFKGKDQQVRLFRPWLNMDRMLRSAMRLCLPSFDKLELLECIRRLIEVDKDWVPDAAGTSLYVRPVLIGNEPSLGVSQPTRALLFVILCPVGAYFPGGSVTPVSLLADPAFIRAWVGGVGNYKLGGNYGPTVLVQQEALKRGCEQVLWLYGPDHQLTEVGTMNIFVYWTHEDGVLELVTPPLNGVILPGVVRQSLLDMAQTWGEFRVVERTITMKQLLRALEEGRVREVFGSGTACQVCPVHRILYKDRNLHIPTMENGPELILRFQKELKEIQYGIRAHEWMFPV
How it was run: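 Cell-free coupled fluorescent assay: human BCATm converts branched-chain amino acids and α-ketoglutarate to L-glutamate, which L-glutamate oxidase and HRP link to resorufin formation from Amplex Red; activity taken as reduced glutamate signal.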

[1] = 3-HIB assay in vitro, direct MS assay of conditioned media; format: cell-based, human; conditions: GM00371 cells, read-out: 3HIB INHIBITION IC50 (μM) MEAN GM00371 cells Direct MS Assay
Method: Cell Plating: Cells (Coriell Institute GM00371 cells) were plated (96-well clear bottom sterile plate; Greiner 655098) at 10,000 cells/0.1 mL in Eagle's minimum essential medium (EMEM)/15% FBS (Gibco 16000-044) with a Combi dispenser in a cell culture hood and incubated at 37° C. and 5% CO2 overnight.
Compound Dilution: Compound were prepared as 33.3× intermediate dilution in DMSO in 96 well round polystyrene plates. For 30 μM final maximum start with 30 μL of 10 mM in DMSO. 10-12 1:3 serial dilutions were prepared from left to right (20 μL+40 μL DMSO). A 10× secondary dilution was prepare in EMEM by taking 7.5 μL 33.3× and transfer to replicate 96 well round polystyrene plates and then adding 242.5 μL EMEM A 1× final dilution in EMEM was prepared by taking 50 μL 10× dilution and transferring to replicate 96 well polypropylene assay block (Costar 3956) and adding 450 μL EMEM A control was prepared for maximal compound inhibition by taking 20 μL 10 mM Reference Compound A and adding 40 μL DMSO for a concentration of 3.3 mM To 7.5 μL of the 3.3 mM Reference Compound A solution and added 242.5 μL EMEM to make a 100 μM solution. The subsequent Reference Compound A solution was diluted with EMEM to achieve a final concentration of 10 μM. The structure of Reference Compound A is:
A control was prepared for maximal compound toxicity by taking 7.5 μL Reference Compound B and 242.5 μL EMEM to make […]. 50 μL of that 100 μM Reference Compound B solution was combined with 450 μL EMEM to achieve a concentration of 30 μM. The structure of Reference Compound B is
A DMSO Control was prepared by dilution 7.5 μL with 242.5 μL EMEM and taking 50 μL of the subsequent solution and diluting with 450 μL EMEM.
Compound Treatment: Media was aspirated from the cells and 100 μL of D-PBS (ThermoFisher 14190144) was added and then removed. 100 μL of diluted compound was added to the cells in the place and the cells were incubated at 37° C. and 5% CO2 for 24 hours.
Collection of Conditioned Media: For 3HIB MS detection: 20 μL conditioned media was removed from the cells and was transferred to a labeled replicate 96 well polypropylene assay plate (VWR 62408-946). And the plate was heat sealed and stored at −80° C.
3HIB Derivatization (Generalized SOP): The media collected for 3HIB MS detection was derivatized under the following conditions. Buffer: 0.1M 1-Ethyl-3-(3-dimethylaminopropyl)carbodiimide (EDC) dissolved in 0.1 M 2-(N-morpholino)ethanesulfonic acid ([…]) adjusted to pH 5.6. Buffer prep: weighed 10.6 g MES (Sigma #M-5287) per 500 mL HPLC grade H2O. Stored at 4° C.; 0.1M EDC: Weighed 1.971 g EDC (#E-1769) per 100 mL MES. Adjusted pH to 5.6 with ˜40 drops of 1N NaOH and stored at 4° C. Buffer has a short half-life should be used within two weeks.
Derivatization: To 20 μL sample was added 60 μL 5 uM 3HIB-4C13 internal standard followed by 20 μL EDC in MES and 100 μL MES. The plate was sealed and incubate at 50° C. for […] then centrifuged at 4000 rpm at 6° C. for 10 minutes. LC-MS analysis was then conducted and the data was processed using standard methods.

GM00371 cells = test: Viability assay (Cell titer glo) in the 3-HIB assay; format: cell-based, human; conditions: read-out: 3HIB INHIBITION IC50 (μM) MEAN GM00371 cells Viablility Assay
How it was run: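 GM00371 cells (10,000/well, EMEM/15% FBS) were exposed for 24 h at 37 °C to compounds in 1:3 serial dilution from 30 μM top concentration in EMEM. Reference Compound B at 30 μM served as maximal-toxicity control. Viability read as CellTiter-Glo luminescence.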

| Structure (SMILES) | IC50 (BCAT1) [nM] | IC50 (BCAT2) [nM] | IC50 ([1]; Homo sapiens, 24 h) [µM] | IC50 ([1]; 24 hours) [µM] | IC50 (GM00371 cells; Homo sapiens, 24 hours) [µM] | IC50 (GM00371 cells; Homo sapiens, 24 h) [µM] | IC50 (GM00371 cells; 24 hours) [µM] |
| --- | --- | --- | --- | --- | --- | --- | --- |
| CNC(=O)c1ccc2c(c1)nc(-c1ncccc1F)n2[C@H]1CCC[C@@H](NC(=O)c2ccc(Cl)s2)C1 [Compound 197] | < 100 | < 100 | < 0.1 | – | – | – | – |
| CNC(=O)c1ccc2c(c1)nc(-c1ccccn1)n2[C@@H]1CCC[C@H](NC(=O)c2ccc(Br)s2)C1 [Compound 102] | ≥ 1000 | – | – | 0.5 to 1 | 0.5 to 1 | – | – |
| CNC(=O)c1ccc2c(c1)nc(-c1cccs1)n2[C@H]1CCC[C@@H](NC(=O)c2ccc(Br)s2)C1 [Compound 193] | 500 to 1000 | – | 0.1 to 0.5 | – | 0.5 to 1 | – | – |
| CNC(=O)c1ccc2c(c1)nc(-c1ccccc1OC)n2[C@H]1CCC[C@@H](NC(=O)c2ccc(Br)s2)C1 [Compound 126] | – | < 100 | 0.1 to 0.5 | – | – | ≥ 1 | – |
| CNC(=O)c1ccc2c(c1)nc(-c1ncccc1C#N)n2[C@H]1CCC[C@@H](NC(=O)c2ccc(C#N)s2)C1 [Compound 178] | – | < 100 | ≥ 1 | – | – | ≥ 1 | – |
| O=C(N[C@H]1CCC[C@@H](n2c(-c3ccccn3)nc3cc(C(F)(F)F)ccc32)C1)c1ccc(Br)s1 [Compound 140] | – | 100 to 500 | 0.5 to 1 | – | – | 0.5 to 1 | – |
| CNC(=O)c1ccc2c(c1)nc(-c1c(F)cccc1F)n2[C@H]1CCC[C@@H](NC(=O)c2ccc(C#N)s2)C1 [Compound 174] | – | < 100 | 0.1 to 0.5 | – | – | 0.5 to 1 | – |
| CNC(=O)c1ccc2c(c1)nc(-c1ncccc1C#N)n2[C@H]1CCC[C@@H](NC(=O)c2ccc(Cl)s2)C1 [Compound 192] | – | < 100 | 0.5 to 1 | – | – | 0.5 to 1 | – |
| CNC(=O)c1ccc2c(c1)nc(-c1ccccc1OC)n2[C@H]1CCC[C@@H](NC(=O)c2ccc(C#N)s2)C1 [Compound 124] | – | < 100 | ≥ 1 | – | – | ≥ 1 | – |
| CNC(=O)c1ccc2c(c1)nc(-c1ncccc1F)n2[C@H]1CCC[C@@H](NC(=O)c2ccc(Br)s2)C1 [Compound 199] | < 100 | < 100 | < 0.1 | – | – | – | – |
| CNC(=O)c1ccc2c(c1)nc(-c1ccccc1SC(F)(F)F)n2[C@H]1CCC[C@@H](NC(=O)c2ccc(C#N)s2)C1 [Compound 127] | – | 500 to 1000 | ≥ 1 | – | – | ≥ 1 | – |
| CNC(=O)c1ccc2c(c1)nc(-c1ccccn1)n2[C@@H]1CCC[C@H](NC(=O)c2ccc(Br)s2)C1 [Compound 105] | 500 to 1000 | – | – | 0.1 to 0.5 | – | – | 0.5 to 1 |
| N#Cc1ccc(C(=O)N[C@@H]2CCC[C@H](n3c(-c4ccccn4)nc4cc(CO)ccc43)C2)s1 [Compound 133] | – | 100 to 500 | ≥ 1 | – | – | ≥ 1 | – |
| CNC(=O)c1ccc2c(c1)nc(-c1c(O)cccc1F)n2[C@H]1CCC[C@@H](NC(=O)c2ccc(Cl)s2)C1 [Compound 177] | – | < 100 | < 0.1 | – | – | 0.1 to 0.5 | – |
| CNC(=O)c1ccc2c(c1)nc(-c1ccccc1SC(F)(F)F)n2[C@H]1CCC[C@@H](NC(=O)c2ccc(Br)s2)C1 [Compound 128] | – | 500 to 1000 | ≥ 1 | – | – | ≥ 1 | – |
| CNC(=O)c1ccc2c(c1)nc(-c1ncccc1O)n2[C@H]1CCC[C@@H](NC(=O)c2ccc(Br)s2)C1 [Compound 152] | – | < 100 | 0.1 to 0.5 | – | – | 0.1 to 0.5 | – |
